Results: patent US20230312601A1, “THIAZOLO[5,4-B]PYRIDINE MALT-1 INHIBITORS” (AbbVie Inc., priority 2022, published 2023)

Experiments:
OCI-LY3 IL6 = assay: MALT-1 Cell IL-6 AlphaLISA Assay; format: cell-based; conditions: Homo sapiens; OCI-LY3 cells, 48 hours incubation; read-out: OCI-LY3 IL6 48 hour Inhibition EC50
Procedure: The following MALT-1 Cell Interleukin-6 (IL-6) AlphaLISA assay was conducted using a Perkin Elmer® IL-6 AlphaLISA® detection kit (PE AL223). The IL-6 detection assay is a homogeneous immunoassay that detects human IL-6 present in the cell culture medium in the MALT-1 dependent human ABC-DLBCL cell line, OCI-LY3. Compounds were pre-dispensed into Black 384w microtiter plates (Greiner, 781090) from 30 μM to 1.5 nM. Viable OCI-LY3 cells were then seeded on top of compounds at a seeding density of 50,000 cells/mL. Plates were then placed into 37° C. incubators for 48 hours. After 48 hours incubation, 2 μL of cell medium from each well was transferred into white ProxiPlates™ (PE 6008289). A fresh mix of AlphaLISA Acceptor beads (10 μg/mL) and Biotinylated IL-6 Antibody (1 nM) was made in AlphaLISA Immunoassay buffer and added to all wells (4 μL). The plates were incubated for 60 minutes at room temperature. Streptavidin donor beads (40 μg/mL) were prepared using the assay buffer and added to all wells (5 The plates were incubated for 30 minutes at room temperature and read using PE EnVision® reader. Results are shown in Table 3.

human MALT-1 protein = human MALT-1 protein (Homo sapiens (Human), UniProt Q9UDY8); assay: MALT-1 Biochemical Assay (Quench-FRET enzyme assay); conditions: human MALT-1 6 nM, substrate 2 μM, 40 min preincubation
Sequence of human MALT-1 protein (Q9UDY8 whole entry): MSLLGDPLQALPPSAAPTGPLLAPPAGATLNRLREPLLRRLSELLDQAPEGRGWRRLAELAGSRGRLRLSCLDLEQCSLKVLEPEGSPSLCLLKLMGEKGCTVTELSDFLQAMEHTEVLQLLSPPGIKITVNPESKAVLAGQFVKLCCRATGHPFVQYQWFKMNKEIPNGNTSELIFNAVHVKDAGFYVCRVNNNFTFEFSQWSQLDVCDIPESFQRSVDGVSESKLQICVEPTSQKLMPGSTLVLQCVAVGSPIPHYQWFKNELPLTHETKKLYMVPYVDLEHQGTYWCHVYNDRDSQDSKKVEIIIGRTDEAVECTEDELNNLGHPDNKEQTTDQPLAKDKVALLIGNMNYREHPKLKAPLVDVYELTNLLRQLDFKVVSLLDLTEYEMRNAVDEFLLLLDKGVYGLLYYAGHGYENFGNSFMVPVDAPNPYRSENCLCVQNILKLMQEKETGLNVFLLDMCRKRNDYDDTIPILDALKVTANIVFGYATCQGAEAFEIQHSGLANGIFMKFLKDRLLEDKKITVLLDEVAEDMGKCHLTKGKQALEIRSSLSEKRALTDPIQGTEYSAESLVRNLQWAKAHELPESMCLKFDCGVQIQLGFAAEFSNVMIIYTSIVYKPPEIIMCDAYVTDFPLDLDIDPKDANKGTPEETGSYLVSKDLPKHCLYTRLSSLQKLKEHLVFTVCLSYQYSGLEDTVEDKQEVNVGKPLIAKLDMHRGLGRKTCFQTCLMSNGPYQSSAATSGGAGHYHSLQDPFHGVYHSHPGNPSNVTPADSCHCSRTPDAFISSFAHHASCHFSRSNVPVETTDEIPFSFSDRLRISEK
From the text: A Quenched Fluorescence Resonance Energy Transfer (Quench-FRET) enzyme assay was used to test the ability of exemplary MALT-1 inhibitors Example 1 to Example 39 to inhibit the cleavage of a MALT1 specific quenched fluorescent substrate of sequence [TAMRA-PEG2-Leu-Val-Ser-Arg-Gly-Ala-Ala-Ser-PEG2-K(QSY7) by human MALT-1 protein; where TAMRA is 6-carboxytetramethylrhodamine, PEG2 is 2-(2-(2-aminoethoxy)ethoxyamide linker, QSY7 is a non-fluorescent quenching dye (Thermo-Fisher catalog #Q10193). The assay was performed by pre-dispensing compounds into 384 well Proxiplates™ (PE 6008289). Human MALT-1 (6 nM) was prepared using the assay buffer (25 mM HEPES pH 7.5, 1 mM ethylenediaminetetraacetic acid, 0.8 M sodium citrate, 0.005% Bovine serum albumin (BSA), 2 mM dithiothreitol (DTT)) and added to the compound plates. The plates were incubated 40 minutes at room temperature. The reaction was carried out by adding the substrate (2 μM) to the plates and incubating for 60 minutes at room temperature. A fluorescence readout was then measured using a PE EnVision® reader (Ex.535/Em.590). […] EC50 is defined as the half maximal effective concentration of compound to inhibit MALT-1 protease activity.

CYP 3A4 mRNA = assay: CYP3A4 Induction Assay (qPCR, human hepatocytes); format: in vitro ADME; conditions: 10 μM compound, relative to rifampicin 10 μM
Procedure: (§1) CYP induction by compounds of the Examples was evaluated in vitro by determining the expression levels of CYP 3A4 mRNA using the qPCR (quantitative polymerase chain reaction) assay. On day one, cryopreserved human hepatocytes were thawed in prewarmed (37° C.) thawing medium (cryopreserved hepatocyte recovery medium, Gibco™ CM 7000; Thermo Fisher Scientific), centrifuged (1000 g for 10 minutes) and resuspended in plating medium (Gibco™ CM3000—Williams Medium E supplemented with hepatocytes plating supplement pak-serum containing; Thermo Fisher Scientific). Cells were counted by trypan blue exclusion using a hemocytometer and adjusted to a cell density of […]. Thereafter, […] of cell suspension was aliquoted per well in a 96-well plate, resulting in 60,000 cells/well. Plates were shaken in the north-south and east-west direction during plating. Plated cells were incubated at 37° C/5% CO2 in a humidified cell culture incubator for 4-6 hours. During this time, incubation medium (Gibco™ CM4000, cell maintenance supplement pack; Thermo Fisher Scientific) was mixed with Gibco™ Geltrex™ (Thermo Fischer Scientific) at the appropriate GeltrexTM protein concentration. Following recovery, medium was removed from cells and replaced with freshly prepared incubation medium. Cells were incubated overnight in a cell culture incubator (37° C./5% CO2).
(§2) The next day the incubation medium was prepared by combining the hepatocyte maintenance supplement pack with Williams Medium E. The medium was warmed to 37° C. 1000× dimethyl sulfoxide compound stocks of the compounds of the Examples were prepared to the desired concentrations. 10 mM compound stocks in dimethyl sulfoxide were diluted (1 μL to 1 mL CM4000; final concentration=10 μM). Overlay medium was aspirated and […] dose solution added to the desired labeled 96 well plate. Cells were then dosed with compound (10 μM) and prototypical induces at the targeted concentrations either 50 i.tM for omeprazole (Sigma 0104/lotBCBF-2161V) or 10 i.tM for rifampicin (Sigma R3501/lot 011M1159V). A negative control, probenecid, was dosed at 10 i.tM (Sigma P8761/lot 013K0148).
(§3) On day 3, RNA isolation was performed. All surfaces were cleaned using RNase RNAy. Total RNA was isolated using MagMAX Express 96 RNA Isolation System (Life Technologies, AM1830). Briefly, hepatocytes were washed once with 1X PBS (phosphate buffered saline). 145 μL of RNA Lysis Buffer was added to each well and each well was mixed by pipetting several times. Lysate was then transferred to a well of a 96 well Binding Plate. Samples were then mixed with 20 μL magnetic beads coming from the kit. RNA bound to beads was then captured by the magnetic tip manifold and beads were washed with the wash solution. Samples were treated with TURBOTmDNase. After TURBOTmDNase treatment, RNA was rebound to beads and washed with the provided wash buffer an additional two times. Beads are then dried, and RNA was eluted with 50 μL elution buffer. The eluted mRNA was transferred from the wells to RNase-free sealable microtiter plates and stored at -80° C. until use.
(§4) Following mRNA isolation, reverse transcription (RT) reactions were performed using TaqmanTm Reverse Transcription Reagents (ThermoFisher Scientific). RT master mix was prepared by mixing 2.5 μL 10× RT buffer, 5.5 μL 25 mM MgCl2, 5μL deoxyNTP mixture, 1.25 50 mM random hexamers, 0.5 μL 2× RNAse inhibitor, 0.625 μL multiscript RTase (50U/μL) and 0.625 μL water. An aliquot of RT mix (16 μL) and an aliquot of mRNA sample (9 μL) was added to each well of a 96-well plate. The SimpliAmpTM Thermal cycler PCR System VIIA7 from Applied Biosystems was used for reverse transcription under the following conditions: segment 1: 25° C. for 10 minutes; segment 2: 45° C. for 45 minutes; segment 3: 95° C. for 5 minutes; and segment 4: 4° C. hold; with 1 cycle for each segment. […]

CYP3A4 mRNA = assay: CYP3A4 Induction Assay (qPCR, human hepatocytes); format: in vitro ADME; conditions: cryopreserved human hepatocytes (plated), 10 μM compound, mRNA fold over vehicle (0.1% DMSO)
Procedure: as §1, §2, §3, §4

Q: What does the source list for CO[C@H](c1c(Nc2ccc([C@H](N(C)C(=O)C3CCN(C(=O)CO)CC3)C(F)(F)F)cc2)cnc2sc(C)nc12)C(F)F [Example 21, N-{(1S) -1-[4-({7-[(1R)-2,2-difluoro-1-methoxyethyl]-2-methyl[1,3]thiazolo[5,4-b]pyridin-6-yl}amino)phenyl]-2,2,2-trifluoroethyl}-1-(hydroxyacetyl)-N-methylpiperidine-4-carboxamide]?
A: EC50 (OCI-LY3 IL6): 670 nM; EC50 (human MALT-1 protein): 141 nM; CYP3A4 % of positive control (%) (CYP 3A4 mRNA): (5.55) %; fold induction at 1 day, 10 µM (CYP3A4 mRNA): 1.29

Q: How did the EC50 (OCI-LY3 IL6) turn out when CO[C@@H](C)c1c(Nc2ccc([C@H](N(C)C(=O)C3CCN(C(=O)CCO)CC3)C(F)(F)F)cc2)cnc2sc(C)nc12 [Example 22, 1-(3-hydroxypropanoyl)-N-methyl-N-{(1S)-2,2,2-trifluoro-1-[4-({7-[(1S)-1-methoxyethyl]-2-methyl[1,3]thiazolo[5,4-b]pyridin-6-yl}amino)phenyl]ethyl}piperidine-4-carboxamide] was run?
A: The EC50 was 380 nM.

Q: What about the EC50 (human MALT-1 protein) of the same compound?
A: Its EC50 is 228 nM.

Q: What about the “CYP3A4 % of positive control (%)” value (CYP 3A4 mRNA) of the same compound?
A: The value was “(1.16) %”.

Q: And the fold induction at 1 day, 10 µM (CYP3A4 mRNA)?
A: The fold induction at 1 day, 10 µM was 1.09.

Q: How did the EC50 (OCI-LY3 IL6) turn out when CO[C@@H](C)c1c(Nc2ccc([C@H](N(C)C(=O)C3CCN(C(=O)C(C)(C)O)CC3)C(F)(F)F)cc2)cnc2sc(C)nc12 [Example 23, 1-(2-hydroxy-2-methylpropanoyl)-N-methyl-N-{(1S)-2,2,2-trifluoro-1-[4-({7-[(1S)-1-methoxyethyl]-2-methyl[1,3]thiazolo[5,4-b]pyridin-6-yl}amino)phenyl]ethyl}piperidine-4-carboxamide] was run?
A: Its EC50 is 210 nM.

Q: And the EC50 (human MALT-1 protein)?
A: Its EC50 is 139 nM.

Q: And the “CYP3A4 % of positive control (%)” value (CYP 3A4 mRNA)?
A: The value was “(−4.35) %”.

Q: And the fold induction at 1 day, 10 µM (CYP3A4 mRNA)?
A: Its fold induction at 1 day, 10 µM is 0.677.

Q: How did the EC50 (OCI-LY3 IL6) turn out when CO[C@@H](C)c1c(Nc2ccc([C@H](N(C)C(=O)C3CCN(C(=O)C(O)CO)CC3)C(F)(F)F)cc2)cnc2sc(C)nc12 (stereo partly drawn) [Example 24, 1-(2,3-dihydroxypropanoyl)-N-methyl-N-{(1S)-2,2,2-trifluoro-1-[4-({7-[(1S)-1-methoxyethyl]-2-methyl[1,3]thiazolo[5,4-b]pyridin-6-yl}amino)phenyl]ethyl}piperidine-4-carboxamide] was run?
A: Its EC50 is 12200 nM.

Q: And the EC50 (human MALT-1 protein)?
A: The EC50 was 979 nM.

Q: What about the “CYP3A4 % of positive control (%)” value (CYP 3A4 mRNA) of the same compound?
A: Its value is “(7.62) %”.

Q: What about the fold induction at 1 day, 10 µM (CYP3A4 mRNA) of the same compound?
A: Its fold induction at 1 day, 10 µM is 1.49.

Q: What does the source list for CO[C@@H](C)c1c(Nc2ccc([C@H](N(C)C(=O)C3CCN(C(=O)[C@@H](C)O)CC3)C(F)(F)F)cc2)cnc2sc(C)nc12 [Example 25, 1-[(2R)-2-hydroxypropanoyl]-N-methyl-N-{(1S)-2,2,2-trifluoro-1-[4-({7-[(1S)-1-methoxyethyl]-2-methyl[1,3]thiazolo [5,4-b]pyridin-6-yl}amino)phenyl]ethyl}piperidine-4-c arboxamide]?
A: EC50 (OCI-LY3 IL6): 250 nM; EC50 (human MALT-1 protein): 67 nM; CYP3A4 % of positive control (%) (CYP 3A4 mRNA): (2.45) %; fold induction at 1 day, 10 µM (CYP3A4 mRNA): 1.16

Q: CO[C@@H](C)c1c(Nc2ccc([C@H](N(C)C(=O)C3CCN(C(=O)[C@H](C)O)CC3)C(F)(F)F)cc2)cnc2sc(C)nc12 [Example 26, 1-[(2S)-2-hydroxypropanoyl]-N-methyl-N-{(1S)-2,2,2-trifluoro-1-[4-({7-[(1S)-1-methoxyethyl]-2-methyl[1,3]thiazolo [5,4-b]pyridin-6-yl}amino)phenyl]ethyl}piperidine-4-c arboxamide] was tested. Which EC50 (OCI-LY3 IL6) did it give?
A: Its EC50 is 1150 nM.

Q: What about the EC50 (human MALT-1 protein) of the same compound?
A: The EC50 was 393 nM.

Q: What about the “CYP3A4 % of positive control (%)” value (CYP 3A4 mRNA) of the same compound?
A: Its value is “(2.57) %”.

Q: What about the fold induction at 1 day, 10 µM (CYP3A4 mRNA) of the same compound?
A: The fold induction at 1 day, 10 µM was 1.17.

Q: What does the source list for CO[C@@H](C)c1c(Nc2ccc([C@H](N(C)C(=O)C3CCN(C(=O)[C@H](O)CO)CC3)C(F)(F)F)cc2)cnc2sc(C)nc12 [Example 27, 1-[(2R)-2,3-dihydroxypropanoyl]-N-methyl-N-{(1S)-2,2,2-trifluoro-1-[4-({7-[(1 S)-1-methoxyethyl]-2-methyl[1,3]thiazolo [5,4-b]pyridin-6-yl}amino)phenyl]ethyl}piperidine-4-carboxamide]?
A: EC50 (OCI-LY3 IL6): 410 nM; EC50 (human MALT-1 protein): 70 nM; CYP3A4 % of positive control (%) (CYP 3A4 mRNA): (7.55) %; fold induction at 1 day, 10 µM (CYP3A4 mRNA): 1.47

Q: Which results are given for CO[C@@H](C)c1c(Nc2ccc([C@@H](C(F)F)N(C)C(=O)C3CCN(C(=O)CO)CC3)cc2)cnc2sc(C)nc12 [Example 28, N-{(1S)-2,2-difluoro-1-[4-({7-[(1S)-1-methoxyethyl]-2-methyl[1,3]thiazolo[5,4-b]pyridin-6-yl}amino)phenyl]ethyl}-1-(hydroxyacetyl)-N-methylpiperidine-4-carboxamide]?
A: EC50 (OCI-LY3 IL6): 420 nM; EC50 (human MALT-1 protein): 138 nM; CYP3A4 % of positive control (%) (CYP 3A4 mRNA): (15.1) %; fold induction at 1 day, 10 µM (CYP3A4 mRNA): 2.24

Q: For CO[C@@H](C)c1c(Nc2ccc([C@@H](C(F)F)N(C)C(=O)C3CCN(C(C)=O)CC3)cc2)cnc2sc(C)nc12 [Example 29, 1-acetyl-N-{(1S)-2,2-difluoro-1-[4-({7-[(1S)-1-methoxyethyl]-2-methyl[1,3]thiazolo[5,4-b]pyridin-6-yl}amino)phenyl]ethyl}-N-methylpiperidine-4-carboxamide], which EC50 (OCI-LY3 IL6) is on record?
A: Its EC50 is 300 nM.

Q: And the EC50 (human MALT-1 protein)?
A: Its EC50 is 232 nM.

Q: And the “CYP3A4 % of positive control (%)” value (CYP 3A4 mRNA)?
A: The value was “(27.8) %”.

Q: What about the fold induction at 1 day, 10 µM (CYP3A4 mRNA) of the same compound?
A: Its fold induction at 1 day, 10 µM is 3.29.

Q: With CO[C@@H](C)c1c(Nc2ccc([C@H](N(C)C(=O)C3CCN(C(=O)[C@@H](O)CO)CC3)C(F)(F)F)cc2)cnc2sc(C)nc12 [Example 30, 1-[(25)-2,3-dihydroxypropanoyl]-N-methyl-N-{(1S)-2,2,2-trifluoro-1-[4-({7-[(1S)-1-methoxyethyl]-2-methyl[1,3]thiazolo[5,4-b]pyridin-6-yl}amino)phenyl]ethyl}piperidine-4-carboxamide] as the compound, how does the EC50 (OCI-LY3 IL6) read?
A: The EC50 was 710 nM.

Q: And the EC50 (human MALT-1 protein)?
A: The EC50 was 82 nM.

Q: What about the “CYP3A4 % of positive control (%)” value (CYP 3A4 mRNA) of the same compound?
A: The value was “(5) %”.

Q: What about the fold induction at 1 day, 10 µM (CYP3A4 mRNA) of the same compound?
A: The fold induction at 1 day, 10 µM was 1.49.
